From ChEMBL document CHEMBL5625259, “Direct-to-biology platform: From synthesis to biological evaluation of SHP2 allosteric inhibitors” (Bioorg Med Chem Lett, 2024) come the findings set out here.

This test addresses T1, Tyrosine-protein phosphatase non-receptor type 11 (Homo sapiens, UniProt Q06124).
T1 sequence (Q06124 whole entry): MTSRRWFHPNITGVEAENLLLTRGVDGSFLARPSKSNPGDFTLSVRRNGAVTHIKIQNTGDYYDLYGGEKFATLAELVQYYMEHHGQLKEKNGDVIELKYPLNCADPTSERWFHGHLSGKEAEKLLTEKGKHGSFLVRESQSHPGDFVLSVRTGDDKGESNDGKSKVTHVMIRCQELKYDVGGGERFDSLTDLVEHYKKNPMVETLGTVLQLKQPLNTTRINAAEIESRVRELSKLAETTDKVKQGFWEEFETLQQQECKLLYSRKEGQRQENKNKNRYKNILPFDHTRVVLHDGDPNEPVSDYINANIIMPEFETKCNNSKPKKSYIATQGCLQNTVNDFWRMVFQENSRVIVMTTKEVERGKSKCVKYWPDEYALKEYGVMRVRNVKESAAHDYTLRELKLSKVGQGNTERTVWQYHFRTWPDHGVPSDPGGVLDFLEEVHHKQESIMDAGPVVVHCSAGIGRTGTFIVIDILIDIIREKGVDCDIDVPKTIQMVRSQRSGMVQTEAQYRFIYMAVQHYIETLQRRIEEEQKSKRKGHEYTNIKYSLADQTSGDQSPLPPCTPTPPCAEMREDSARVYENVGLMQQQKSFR
The experiment in a line: Allosteric inhibition of wild type SHP2 (unknown origin) assessed as dephosphorylation of DIFMUP by fluorescence based envision microplate reader analysis.

A value given as a limit tells only on which side of the number the result lay.

Consider `FC(F)(F)c1ncccc1Sc1cnc2[nH]c(N3CCCC4(CNCCO4)C3)nc2n1` (stereo unspecified), for which the IC50 was > 3.2 µM.
